No end group written: not given here.
Legend:
ghrelin levels = experiment: Crossover study of pramlintide in humans: ghrelin levels (Example 6); type: in vivo, human; conditions: single SC dose of pramlintide 30 μg, n=15, FIG. 6
Procedure: FIG. 6 depicts a graph of the effect of an amylin analog on ghrelin levels in humans.
(§1) Ghrelin levels were measured in a single-center, randomized, double-blind, placebo-controlled, two-period, crossover study was designed to examine the acute effects of pramlintide, an amylin analog, in humans. The study consisted of two treatment periods (Period 1/Visit 2 and Period 2/Visit 3) with at least 72 h between each treatment period. After successful completion of all Screening procedures (including informed consent), subjects (n=15) were randomly assigned to one of two treatment sequences (pramlintide: placebo or placebo: pramlintide). Subjects were instructed to fast from 2200 h on the evening before both treatment periods until the start of the test (the next morning).
On the mornings of Period 1 and Period 2, an intravenous cannula was placed in an antecubital vein for blood sampling (t=−1 h). Vital signs and weight were measured at this time. During each treatment period, subjects received study medication (pramlintide or placebo) immediately followed by a standardized, liquid preload meal, which was to be consumed within 3 min. Subjects received a single SC dose of pramlintide 30 μg or placebo. […] The buffet meal included a selection of carbohydrate-rich foods in quantities in excess of what subjects were expected to eat. […]

[1] = Crossover study of pramlintide in humans: ad libitum buffet meal intake (Example 6); type: in vivo, human; conditions: single SC dose of pramlintide 30 μg
Procedure: as §1
On the mornings of Period 1 and Period 2, an intravenous cannula was placed in an antecubital vein for blood sampling (t=−1 h). Vital signs and weight were measured at this time. During each treatment period, subjects received study medication (pramlintide or placebo) immediately followed by a standardized, liquid preload meal, which was to be consumed within 3 min. Subjects received a single SC dose of pramlintide 30 μg or placebo. One hour later (t=1 h), subjects consumed an ad libitum buffet meal, which was offered for 45 min. The buffet meal included a selection of carbohydrate-rich foods in quantities in excess of what subjects were expected to eat. Venous blood samples were collected over a 5.5-h period (t=−0.5 h to 5 h) for the measurement of postprandial metabolic and hormonal responses. Procedures for Period 2 were exactly as those described for Period 1, only the alternate treatment was given.

active ghrelin [2] = experiment: Amylin receptor antagonist s.c., plasma ghrelin in non-fasted rats given pentagastrin (Example 4, FIG. 4A); type: in vivo; conditions: AC187 3 mg/rat s.c. at -5 min, pentagastrin 125 μg/kg s.c. at 0 min
Procedure: (§2) FIGS. 4A and 4B depict graphs of the effects of an amylin receptor antagonist on ghrelin levels in an animal model.
(§3) The following methods apply to Examples 1-4 as indicated. Male Harlan Sprague Dawley® (HSD) rats were housed at 22.8±0.8° C. in a 12:12 hour light:dark cycle. All experiments were performed in the light cycle. Animals were fasted for approximately 20 hours before experimentation (examples 1, 2 and 3) or fed ad libidum (Example 4). All animals were given free access to water until the start of the experiment. The animals' tails were anesthetized with 20% benzocaine (Hurricaine, Beutlich Pharmaceutical, Waukegan, Ill.), and blood samples were collected from the tail vein. Total and active ghrelin concentrations were measured using Linco RIA kits GHRA-89HK and GHRA-88HK, respectively.
These experiments were conducted to determine whether the amylin receptor antagonist AC187 blocked an effect of endogenous amylin on plasma ghrelin levels in non-fasted rats. Baseline blood samples for ghrelin to be assayed were taken at t=−10 min. AC187 (lot #AR741-72, Amylin Pharmaceuticals), at a dose of 3 mg/rat in 300 μl of saline, or saline vehicle alone, was given by subcutaneous injection (n=6, 8 respectively) at t=−5 min. Animals additionally received a subcutaneous injection of pentagastrin (Sigma, Lot#050K1525) in the amount of 125 μg/kg body mass at time=0 min. […]

active ghrelin [3] = experiment: Amylin receptor antagonist i.v., plasma ghrelin in fed rats (Example 4, FIG. 4B); type: in vivo; conditions: AC187 3 mg/rat i.v.; five minutes after administration; fed animals; saline controls 1.4±6.4% decrease, P<0.03
Procedure: as §2, §3
In a second, related experiment, baseline blood samples for ghrelin to be assayed were taken at t=0 minutes. AC187 (lot#AR2237-18B, Amylin Pharmaceuticals, Inc.), at a dose of 3 mg/rat in 300 μl of saline or saline vehicle alone, was given by intravenous injection in the tail vein at t=0. Plasma samples were collected at time 0, 5, and 15 minutes. Five minutes after administration of AC187 in fed animals, active ghrelin concentrations increased by 16.3±4.0%, as compared to a 1.4±6.4% decrease in saline controls (P<0.03), see FIG. 4B.

[4] = treated test animals; e.g., provoking marked hyperlactemia followed by hyperglycemia; cited from earlier work
[5] = cited from earlier work
[6] = tested on: active (acylated) ghrelin; experiment: Effect of rat amylin on ghrelin levels in pentagastrin-treated fasted rats (Example 1); type: in vivo; conditions: 10 μg rat amylin s.c. 20 min after 125 μg/kg pentagastrin s.c.
Procedure: FIG. 1 depicts a graph of the effect of exogenously administered rat amylin on endogenous ghrelin levels in an animal model. 125 μg pentagastrin (PG) was administered at t=0 and 10 μg amylin was administered at t=20 (dotted lines).
as §3
HSD rats were subjected to periodic blood sampling from the topically anesthetized tail and ghrelin levels were assayed. At t=0, rats (n=6) were injected s.c. with 125 μg/kg pentagastrin (Sigma) to stimulate gastric acid secretion (PG=0 min in FIG. 1), and 20 min later were injected subcutaneously (s.c.) with 10 μg rat amylin. The blood samples were analyzed for total and active (acylated) ghrelin (Linco).

total plasma ghrelin [7] = experiment: Effect of rat amylin on ghrelin levels with and without pentagastrin in fasted rats (Example 2); type: in vivo
Procedure: FIGS. 2A and 2B depict graphs of the effect of rat amylin on ghrelin levels in an animal model in the presence and absence of pentagastrin.
as §3
These experiments were conducted to examine whether exogenous amylin inhibits ghrelin secretion independent of pentagastrin stimulation. Fasted rats were given either a subcutaneous injection of saline or of 30 μg/kg rat amylin (FIG. 2A) or a subcutaneous injection of either saline or 125 μg/kg pentagastrin (Sigma, Lot#050K1525) (FIG. 2B) at time=0 min. […]

total plasma ghrelin [8] = experiment: Dose-response effects of amylin on ghrelin levels in fasted rats (Example 3); type: in vivo, rat
Procedure: FIGS. 3A and 3B depict graphs of dose-response effects of rat amylin on ghrelin levels in an animal model.
as §3
These experiments were conducted to identify dose-response effects of amylin on ghrelin levels in fasted rats. Rat amylin (lot #AR2081-42A, Amylin Pharmaceuticals) in 100 μl saline was given by subcutaneous injections at doses: 0, 1, 10, 30 and 100 μg/kg (n=5, 4, 5, 5, 4 respectively) at time=0 min. Blood plasma samples were collected at time=0, 10, 20, 30, 60, 90 and 120 min after amylin injection. […] Pairwise statistical analyses were performed using Student's t-test (Instat v2.0, GraphPad Software Inc, San Diego). Results are reported as mean±standard error of the mean, and P<0.05 is used as the level of significance.

active ghrelin [9] = experiment: Amylin effect on ghrelin in area postrema-lesioned and sham operated rats (Example 5); type: in vivo, rat
Procedure: FIG. 5 depicts a graph of the effect of the area postrema on amylin's effect on ghrelin secretion.
In this experiment, fasted, Sprague-Dawley® rats with localized lesions of the area postrema (AP) made by vacuum aspiration 3 weeks before the experiments and sham operated rats (sham) were injected s.c. with amylin (30 μg/kg) or saline (n=4, 4 respectively). At t=0, 10, 20, 30, 60, 90 and 120 minutes after the s.c. injection, total ghrelin concentrations were measured and reports as % of the baseline.
Twenty minutes after a 30 μg/kg subcutaneous amylin injection in Sham rats, active ghrelin concentration decreased by 31.3±3.3%, while active ghrelin concentrations in saline controls increased by 23.5±22.1% (P<0.05).

CC[C@H](C)[C@H](NC(=O)[C@@H]1CCCN1C(=O)CNC(=O)[C@H](Cc1ccccc1)NC(=O)[C@H](CC(N)=O)NC(=O)[C@H](CC(N)=O)NC(=O)[C@H](CO)NC(=O)[C@H](CO)NC(=O)[C@H](Cc1c[nH]cn1)NC(=O)[C@@H](NC(=O)[C@H](CC(C)C)NC(=O)[C@H](Cc1ccccc1)NC(=O)[C@H](CC(N)=O)NC(=O)[C@H](C)NC(=O)[C@H](CC(C)C)NC(=O)[C@H](CCCNC(=N)N)NC(=O)[C@H](CCC(N)=O)NC(=O)[C@@H](NC(=O)[C@H](C)NC(=O)[C@@H]1CSSC[C@H](NC(=O)[C@@H](N)CCCCN)C(=O)N[C@@H](CC(N)=O)C(=O)N[C@@H]([C@@H](C)O)C(=O)N[C@@H](C)C(=O)N[C@@H]([C@@H](C)O)C(=O)N1)[C@@H](C)O)C(C)C)C(=O)N[C@@H](CC(C)C)C(=O)N1CCC[C@H]1C(=O)N1CCC[C@H]1C(=O)N[C@H](C(=O)N[C@@H](CC(N)=O)C(=O)N[C@H](C(=O)NCC(=O)N[C@@H](CO)C(=O)N[C@@H](CC(N)=O)C(=O)N[C@H](C(=O)N[C@@H](Cc1ccc(O)cc1)C(N)=O)[C@@H](C)O)C(C)C)[C@@H](C)O [pramlintide, ^25,28,29Pro-h-amylin]
ghrelin levels following an ad libitum buffet meal compared to placebo (ghrelin levels): further reduced
duration of the meal time compared to placebo [1]: reduced
fat, carbohydrate, and protein intake compared to placebo [1]: proportionate reductions
total caloric intake of the buffet meal compared to placebo [1]: reduced

Ac ^30Asn, ^32Tyr-sCT[8-32] [AC187]
active ghrelin concentrations compared to saline injected controls (active ghrelin [2]): higher
increase of active ghrelin concentrations (active ghrelin [3]): 16.3±4.0%

^18Arg^25,28Pro-h-amylin (KCNTATCATQRLANFLVRSSNNFGPILPSTNVGSNTY)
amylin activity in vivo [4]: show amylin activity in vivo
solubility characteristics compared to human amylin [5]: more desirable

^25Pro^26Val^28,29 Pro-h-amylin (KCNTATCATQRLANFLVHSSNNFGPVLPPTNVGSNTY)
solubility characteristics compared to human amylin [5]: more desirable

^28Pro-h-amylin (KCNTATCATQRLANFLVHSSNNFGAILPSTNVGSNTY)
amylin activity in vivo [4]: show amylin activity in vivo

des-^1Lys-h-amylin (CNTATCATQRLANFLVHSSNNFGAILSSTNVGSNTY; ends and bridges not checked; cysteine pairing not given here; UniProt P10997 35-70, looked up, fragment)
amylin activity in vivo [4]: show amylin activity in vivo

des-^1Lys^18Arg^25,28Pro-h-amylin
amylin activity in vivo [4]: show amylin activity in vivo

rat amylin (KCNTATCATQRLANFLVRSSNNLGPVLPPTNVGSNTY; not fully specified; ends and bridges not checked; UniProt P12969 38-74, looked up) [rat amylin peptide hormone (AC0128, Amylin Pharmaceuticals)]
time within which active ghrelin was reduced by 50% [6]: ≤ 1 h
reduction of active ghrelin ([6]; FIG. 1): 50%
plasma ghrelin compared to the control, amylin alone (total plasma ghrelin [7]; 30 μg/kg rat amylin s.c. without pentagastrin): reduced
total plasma ghrelin compared to the saline control (total plasma ghrelin [7]; 30 μg/kg rat amylin s.c., FIGS. 2A and 2B): reduction in total plasma ghrelin
inhibition of ghrelin at lowest dose (total plasma ghrelin [8]; amylin dose of 1 μg/kg s.c.): trend to inhibit ghrelin
reduction of ghrelin, significance (total plasma ghrelin [8]; amylin doses of 10 μg/kg and above s.c., P<0.05 level): statistically significant
total plasma ghrelin concentrations, dose-response (total plasma ghrelin [8]; rat amylin s.c. 0, 1, 10, 30 and 100 μg/kg, fasted rats, FIG. 3A): dose-dependent reduction
time of ghrelin concentration nadirs after amylin injection (total plasma ghrelin [8]; rat amylin s.c. 1-100 μg/kg, fasted rats): 60 to 90 min
difference in ghrelin concentration, amylin versus saline (active ghrelin [9]; AP-lesioned rats, 30 μg/kg s.c. amylin, P=0.24): no significant difference
increase of ghrelin concentration (active ghrelin [9]; AP-lesioned rats, 30 μg/kg s.c. amylin, saline +49.6±21.0%, P=0.24): 13.7±17.6%
decrease of active ghrelin concentration (active ghrelin [9]; Sham rats, twenty minutes after 30 μg/kg s.c. amylin, saline controls increased by 23.5±22.1%, P<0.05): 31.3±3.3%
